As a reminder, the Km is the concentration of substrate that gives half-maximal velocity.

The record followed here is PMC11207022, “Enhanced Enzymatic Performance of Immobilized Pseudomonas fluorescens Lipase on ZIF-8@ZIF-67 and Its Application to the Synthesis of Neryl Acetate with Transesterification Reaction” (Molecules, 2024).

This test concerns T1, Pseudomonas fluorescens lipase (PFL).
T1 construct: commercial lipase powder (Amano Enzyme Ltd., Nagoya, Japan), used without further treatment; free enzyme
Briefly: colorimetric p-nitrophenol release at […] nm; initial rates, linear regression (Lineweaver-Burk). The test is classed as biochemical. To be noted: free enzyme; standard assay phosphate buffer pH 7.5, 40 °C, with Triton and acetone.

In the case of `CCCC(=O)Oc1ccc([N+](=O)[O-])cc1` [p-nitrophenol butyrate], the Michaelis constant (Km) was 760 µM.
